The values below come from US20250249007A1, “PHARMACEUTICAL COMPOSITIONS OF ENSIFENTRINE FOR CHRONIC OBSTRUCTIVE PULMONARY DISEASE” (Verona Pharma PLC, priority 2024, published 2025).

Data set [1] concerns patients with moderate to severe COPD. As to the kind of experiment: Clinical study of nebulized ensifentrine versus placebo in COPD: average FEV1 AUC0-12h at week 12. Type of data set: in vivo, human. On the procedure: A clinical study was conducted to determine the efficacy of ensifentrine in treating COPD compared with placebo. Ensifentrine was administered by nebulizer at a dose of 3 mg twice daily (BID) for 24 weeks. The study was a multicenter, randomized, double-blind, parallel group, placebo-controlled trial with around 800 patients and 5:3 randomization.
The study population included patients aged 40-80 years with moderate to severe COPD (FEV1 30%-70% p.n., FEV1/forced vital capacity (FVC) ratio<0.7, with mMRC≥2). The randomization stratified (a) the use of stable background maintenance LAMA or LABA therapy use (approx. 50% yes or no) and (b) cigarette smoking (current or former). Inhaled corticosteroid (ICS) maintenance therapy was permitted in up to 20% of patients under certain provisions.
The primary endpoint of the study was change from baseline in average FEV1 area under the curve (AUC0-12h) […] at week 12; morning trough FEV1 at week 12; and other endpoints including moderate/severe COPD exacerbations frequency over 24 weeks.
Baseline FEV1 is the mean of the two measurements taken before study medication on the day of first dosing, i.e., ≤40 minutes and just prior to dosing, both pre-dose on day 1. Average FEV1 AUC0-12h is defined as area under the curve over 12 h of the FEV1, divided by 12 h.
The investigational product and placebo were provided in 2.5 mL unit dose format in an ampule and administered via a nebulizer. The formulation of the investigational product (ensifentrine suspension formulation comprising crystalline polymorph Form I of ensifentrine) and placebo are shown in Table 2.

A short description of data set [2]: Dose normalized steady-state AUCtau in non-COPD subjects with and without hepatic impairment. To be noted: for AUC: human, plasma, inhaled, 3 mg, dose normalized to 3 mg, FIG. 3. It counts as in vivo, human. As for the experimental part: The dose normalized steady-state AUCtau for a 3 mg dose in non-COPD subjects with and without hepatic impairment is shown in FIG. 3. As described in FIG. 3 the AUCtau,ss of healthy subjects was from about 5000 pg/mL*h to about 9000 pg/mL*h. The AUCtau,ss of subjects with moderate hepatic impairment was about 4000 pg/mL*h to about 11000 pg/mL*h. The AUCtau,ss of subjects with severe hepatic impairment was about 5500 pg/mL*h to about 6500 pg/mL*h. […] The highest dose normalized AUCtau,ss observed in this subset was for a subject with moderate hepatic impairment, but this was not the highest exposure in the overall dataset as it was exceeded by two other subjects with COPD.

A short description of data set [3]: popPK model simulation of ensifentrine PK by renal function (virtual population of COPD subjects). On the set-up: species or system human. The settings on record: nebulization of 3 mg, simulated. On the procedure:
Plasma concentrations of ensifentrine for the assessment of pharmacokinetic (PK) parameters were measured using validated bioanalytical methods for ensifentrine in human plasma with LLOQ of 5 pg/mL. Samples were taken on the following schedule: • Week 6: 1.0 h (±0.5 h) and 2.5 h (±0.5 h) (even sites) or 1.5 h and 4 h (±1 h) (odd sites); • Week 12: pre-dose (−0.5 h), 4 to 6 h, and 8 to 12 h (even sites) or 0.5 h (±0.25 h), 3 h (±0.5 h), and 6 to 8 h (odd sites); • Week 24: pre-dose (−0.5 h) and 1.5 h (even sites) or pre-dose (−0.5 h) and 1 h (±0.5 h) (odd sites)
Based on the samples taken during the trial, PK data was modelled for COPD patients with varying levels of renal function:
A two-compartment model with first-order input and first-order elimination from the central compartment was fit to the plasma concentration-time data of ensifentrine using NONMEM® version 7.4.4. Different absorption functions and compartmental structures were explored. […]
The final model was evaluated using goodness of fit plots, bootstrap analysis, and visual predictive checks (VPCs). […]
Subjects with normal renal function to mild renal impairment are defined as those individuals with an absolute estimated glomerular filtration rate (aEGFR) of greater than or equal to 60 mL/min. […] Individual subject concentrations were simulated using NONMEM version 7.4.3, and PK parameters were calculated using R version 3.4.0. […]

With `COc1cc2c(cc1OC)-c1c/c(=N\c3c(C)cc(C)cc3C)n(CCNC(N)=O)c(=O)n1CC2` [Ensifentrine, N-(2-{(2E)-9,10-dimethoxy-4-oxo-2-[(2,4,6-trimethylphenyl)imino]-6,7-dihydro-2H-pyrimido[6,1-a]isoquinolin-3(4H)-yl}ethyl)urea], the “Average FEV1 (AUC)0-12 h post-dose at Week 12: Change from Baseline, CFB Least Squares Mean (95% CI)” value in data set [1] (3 mg BID by nebulizer, week 12, n = 498) is 48.2 (30.0, 66.5) mL. Besides, the “Average FEV1 (AUC)0-12 h post-dose at Week 12: Placebo-corrected CFB LS Mean Diff. (95% CI)” value in data set [1] (3 mg BID by nebulizer, week 12, versus placebo) is 93.9 (64.5, 123.3) mL. Moreover, the “Improvement in lung function” value in data set [1] (individuals with normal renal function to mild renal impairment and subjects with moderate renal impairment) is “statistically significant improvement in lung function”. The AUC lay within 5 to 9 ng·h/mL in data set [2] (healthy subjects), 4 to 11 ng·h/mL in data set [2] (subjects with moderate hepatic impairment (n=10)) and 5.5 to 6.5 ng·h/mL in data set [2] (subjects with severe hepatic impairment (n=2)). Further, the “Exposure (AUC) in hepatic impairment versus healthy subjects” value in data set [2] (moderate (n=10) or severe (n=2) hepatic impairment) is “comparable to healthy subjects”. Moreover, the “AUC ratio aEGFR < 60 mL/min: ≥60 mL/min” value in data set [3] is given as 1.30. Moreover, the “Cmax ratio aEGFR < 60 mL/min: ≥60 mL/min” value in data set [3] is listed as 1.16.
